Laboratory results: PubChem BioAssay (NCI)
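The compound was tested at five concentrations on cells cultured in 96-well plates, with a 48-hour exposure period. GI50 marks 50% less growth. TGI marks complete inhibition of growth.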

Key:
Experiment in all cases: inhibition of tumour cell growth, NCI panel, 48 h
CAKI-1 renal = system: CAKI-1 renal
IGROV1 ovarian = system: IGROV1 ovarian
CCRF-CEM leukemia = system: CCRF-CEM leukemia
OVCAR-8 ovarian = system: OVCAR-8 ovarian
U251 CNS = system: U251 CNS
UACC-62 melanoma = system: UACC-62 melanoma
KM12 colon = system: KM12 colon
HOP-92 NSCLC = system: HOP-92 NSCLC
A498 renal = system: A498 renal
SK-OV-3 ovarian = system: SK-OV-3 ovarian

Row | SMILES | GI50 (CAKI-1 renal) [µM] | TGI (CAKI-1 renal) [µM] | GI50 (IGROV1 ovarian) [µM] | TGI (IGROV1 ovarian) [µM] | GI50 (CCRF-CEM leukemia) [µM] | TGI (CCRF-CEM leukemia) [µM] | GI50 (OVCAR-8 ovarian) [µM] | TGI (OVCAR-8 ovarian) [µM] | GI50 (U251 CNS) [µM] | TGI (U251 CNS) [µM] | GI50 (UACC-62 melanoma) [µM] | TGI (UACC-62 melanoma) [µM] | GI50 (KM12 colon) [µM] | TGI (KM12 colon) [µM] | GI50 (HOP-92 NSCLC) [µM] | TGI (HOP-92 NSCLC) [µM] | GI50 (A498 renal) [µM] | TGI (A498 renal) [µM] | GI50 (SK-OV-3 ovarian) [µM] | TGI (SK-OV-3 ovarian) [µM]
1 | CS(=O)(=O)CCNCc1nc(-c2ccc3ncnc(Nc4ccc(OCc5cccc(C(F)(F)F)c5)cc4)c3c2)cs1 | > 25 | > 25 | 5.4 | > 25 | > 25 | > 25 | 11.1 | > 25 | 5.9 | > 22.6 | > 25 | > 25 | > 25 | > 25 | 3.68 | 15.8 | 4.1 | > 25 | 6.01 | > 21.6
2 | OCC1OC(c2nc(C3=NCCCN3)cs2)C(O)C1O (centres undefined) | – | > 100 | – | > 100 | – | > 100 | – | > 100 | – | > 100 | – | > 100 | – | > 10 | – | > 100 | – | > 100 | – | > 100
3 | O=C(CCc1n[nH]c(=S)o1)Nc1ccccc1C(F)(F)F | – | > 100 | – | > 100 | – | > 100 | – | > 100 | – | > 100 | – | > 100 | – | > 100 | – | > 100 | – | > 100 | – | > 100
4 | Cn1cc(C2=C(c3cn(CCCCO)c4ccccc34)C(=O)NC2=O)c2ccccc21 | 11.8 | > 25 | 12.2 | > 22.9 | 6 | > 25 | 8.61 | 24.8 | 8.55 | > 25 | 9.07 | > 24.1 | 7.09 | > 23 | 17.1 | > 25 | 6.32 | 22.2 | 8.23 | > 25
5 | Cc1ncc(C(=O)Nc2ccc(CN3CCN(C)CC3)c(C(F)(F)F)c2)cc1C#Cc1cnc(N)c2ccncc12 | 1.11 | 2.66 | 0.152 | 1.42 | 2.73 | 10.8 | 1.69 | 6.55 | 1.55 | 3.35 | 1.4 | 2.9 | 0.441 | 1.82 | 0.615 | 3.62 | 1.35 | 2.92 | 2.79 | 7.13
6 | CCOC(=O)Nc1ccc(C)c(NC(=O)OCC)c1 | – | > 100 | – | > 100 | – | > 100 | – | > 100 | – | > 100 | – | > 100 | – | > 100 | – | > 100 | – | > 100 | – | > 100
7 | COc1cc2c(c(OC)c1OC)-c1ccc(SC)c(=O)cc1C(NC=O)CC2 (centres undefined) | – | > 83 | – | > 85.5 | – | > 74.8 | – | > 68.5 | – | 5.68 | – | > 100 | – | < 0.0138 | – | > 100 | – | 1.76 | – | 63.9
8 | O=C(CSc1nc2ccccc2nc1-c1ccccc1)Nc1ccc(F)cc1 | > 100 | > 100 | 42.4 | > 100 | > 100 | > 100 | 30 | > 100 | 38.8 | > 100 | 48.5 | > 100 | 44.8 | > 100 | 20.3 | 58.1 | 41.7 | > 100 | 35 | > 100
9 | NCCNc1c2c(c(NCCN)c3[nH]ccc13)C(=O)c1ccccc1C2=O | < 0.042 | 0.777 | 1.2 | > 100 | < 0.01 | 0.163 | 0.151 | 0.612 | – | 0.842 | 0.0842 | 0.372 | 0.191 | 0.957 | 0.427 | 4.21 | 0.231 | 0.565 | 0.79 | 5.52
10 | COc1cc(Cn2c(-c3ccccc3)c(Cl)c3c2-c2oncc2CC3)cc(OC)c1 | 5.24 | > 100 | 4.89 | 21.7 | 3.54 | > 100 | 15.9 | > 100 | 6.2 | > 100 | 3.84 | 31.3 | 4.19 | > 100 | 50 | > 100 | 2.96 | 90.3 | 15.2 | > 100
11 | COc1cc(-c2cc(-c3cc4c([nH]c5ccccc54)c(-c4cc(OC)c(OC)c(OC)c4)n3)cc(-c3ccccc3)n2)cc(OC)c1OC | 5.67 | > 100 | 6.44 | > 100 | 3.6 | > 100 | 4.01 | 43.4 | 4.25 | 29.1 | 2.9 | 18 | 4.09 | > 100 | 1.45 | 6.25 | 1.64 | 7.96 | 5 | 51.9
